Experimental data reported in patent publication US20050170330A1, “Angiogensis models using nestin-expressing stem cells to image nascent blood vessels” (AntiCancer, Inc., priority 2003, published 2005).

Experiments:
[1] = test system: B16F10 murine melanoma cells; assay: Cord formation in vitro by B16F10 tumor cells; type: cell-based
From the text: B16F10 murine melanoma cells are shown below to mimic endothelial cell behavior and the angiogenic process in vitro and in vivo. Cord formation in vitro by tumor cells is stimulated by hypoxia and vascular endothelial growth factor (VEGF) and inhibited by antibodies against VEGF and the VEGF KDR receptor (VEGF receptor 2).

[2] = test system: ND-GFP vessels growing from transplanted hair follicles; assay: ND-GFP vibrissa follicle transplantation into wounded nude-mouse skin, angiogenesis model; type: in vivo; settings: nude mice with transplanted ND-GFP vibrissa follicles, compared with carrier-only control group
From the text: For transplantation purposes, vibrissa follicles from ND-GFP transgenic mice is surgically obtained as discussed in Example 8. All follicles are then kept in DMEM/F-12 medium containing B-27 supplement (GIBCO/BRL).
Recipient nude mice are anesthetized, and a sample of full-thickness skin is folded and two neighboring full-thickness wounds ˜15 mm apart are made with a 2-mm biopsy punch. ND-GFP vibrissa follicles are then transplanted. The incision is closed with nylon sutures (6-0).
The mice are divided into an experimental group and a control group. The experimental group received a treatment series comprising vascular endothelial growth factor, a known angiogenesis promoting compound in a pharmaceutically acceptable carrier. The control group of mice receives only the carrier.
Following treatment, samples of subcutis of the transplanted mice are subsequently excised and directly observed by fluorescence microscopy and air-dried or prepared for frozen sections for immunohistochemical staining. […]
The mice are divided into an experimental group and a control group. The experimental group received a treatment series comprising vasoinhibin, a known angiogenesis inhibiting compound in a pharmaceutically acceptable carrier. The control group of mice receives only the carrier.

Substance: vascular endothelial growth factor
- cord formation in vitro by tumor cells [1]: stimulated
- angiogenic activity based on the amount of GFP activity [2]: higher degree of angiogenic activity
